Laboratory results: PubChem BioAssay AID1259411 (Chemical Carcinogenesis Research Information System (CCRIS), 2018)
The source made the active and inactive calls. How the calls were made is not given here.

Tested on: rodent carcinogenicity bioassays, tumor incidence
Assay: CCRIS carcinogenicity studies
Summary of the method: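 NCI-built, expert-reviewed records of carcinogenicity and related test outcomes (mutagenicity, tumor promotion/inhibition) compiled from published and report sources, historical span 1985-2011, not updated.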

SMILES: C=CCl
- carcinogen call (Species: HAMSTER, Strain/Sex: SYRIAN/MALE, Route: INHALATION, Dose: 0, 50, 250, 500, 2500, 6000, 10000 PPM 4 HR/D, 5 D/WK FOR (STUDY DURATION: 109 WK), Dose: 0, 50, 250, 500, 2500, 6000, 10000 PPM 4 HR/D, 5 D/WK FOR (STUDY DURATION: 109 WK), Tumor Site: Type of Lesion: INTEGUMENTARY SYSTEM (SKIN): EPITHELIOMA, FORESTOMACH: PAPILLOMA OR ACANTHOMA, LIVER: ANGIOMA OR ANGIOSARCOMA, Tumor Site: Type of Lesion: INTEGUMENTARY SYSTEM (SKIN): EPITHELIOMA, FORESTOMACH: PAPILLOMA OR ACANTHOMA, LIVER: ANGIOMA OR ANGIOSARCOMA): active; positive
- carcinogen call (Species: HAMSTER, Strain/Sex: SYRIAN, Route: INHALATION, Tumor Site: Type of Lesion: LIVER): active; positive
- carcinogen call (Species: HUMAN, Route: INHALATION, Tumor Site: Type of Lesion: LIVER, BRAIN, LUNG, Tumor Site: Type of Lesion: LIVER, BRAIN, LUNG): active; positive
- carcinogen call (Species: MOUSE, Strain/Sex: ICR/FEMALE, Route: INHALATION, Dose: 0, 50, 500, 5000, 50000 PPM ONCE FOR 1 HR (STUDY DURATION: 18 MO), Dose: 0, 50, 500, 5000, 50000 PPM ONCE FOR 1 HR (STUDY DURATION: 18 MO), Tumor Site: Type of Lesion: LUNG: ALVEOLAR/BRONCHIOLAR ADENOMA OR CARCINOMA): active; positive
- carcinogen call (Species: MOUSE, Strain/Sex: ICR/MALE, Route: INHALATION, Dose: 0, 50, 500, 5000, 50000 PPM ONCE FOR 1 HR (STUDY DURATION: 18 MO), Dose: 0, 50, 500, 5000, 50000 PPM ONCE FOR 1 HR (STUDY DURATION: 18 MO), Tumor Site: Type of Lesion: LUNG: ALVEOLAR/BRONCHIOLAR ADENOMA OR CARCINOMA): active; positive
- carcinogen call (Species: MOUSE, Strain/Sex: SWISS/MALE,FEMALE, Route: INHALATION, Dose: 0, 50, 250, 500, 2500, 6000, 10000 PPM 4 HR/D, 5 D/WK FOR 30 WK (STUDY DURATION: 81 WK), Dose: 0, 50, 250, 500, 2500, 6000, 10000 PPM 4 HR/D, 5 D/WK FOR 30 WK (STUDY DURATION: 81 WK), Tumor Site: Type of Lesion: LIVER: ANGIOMA, ANGIOSARCOMA, LUNG: TUMOR (NOS), MAMMARY GLAND: CARCINOMA, Tumor Site: Type of Lesion: LIVER: ANGIOMA, ANGIOSARCOMA, LUNG: TUMOR (NOS), MAMMARY GLAND: CARCINOMA): active; positive
- carcinogen call (Species: MOUSE, Strain/Sex: SWISS, Route: INHALATION, Tumor Site: Type of Lesion: LIVER, LUNG, MAMMARY GLAND, Tumor Site: Type of Lesion: LIVER, LUNG, MAMMARY GLAND): active; positive
- carcinogen call (Species: RAT, Route: INHALATION, Tumor Site: Type of Lesion: LIVER, LUNG, KIDNEY, EAR (ZYMBAL GLAND), Tumor Site: Type of Lesion: LIVER, LUNG, KIDNEY, EAR (ZYMBAL GLAND)): active; positive
- carcinogen call (Species: RAT, Strain/Sex: SPRAGUE-DAWLEY/FEMALE, Route: GAVAGE, Dose: 0, 0.03, 0.3, 1, 3.33, 16.65, 50 MG/KG BW IN OLIVE OIL 1/D 4-5 D/WK FOR 52-59 WK (STUDY DURATION: LIFETIME), Dose: 0, 0.03, 0.3, 1, 3.33, 16.65, 50 MG/KG BW IN OLIVE OIL 1/D 4-5 D/WK FOR 52-59 WK (STUDY DURATION: LIFETIME), Tumor Site: Type of Lesion: [BRAIN WAS ONLY SITE EVALUATED]): inactive; negative
- carcinogen call (Species: RAT, Strain/Sex: SPRAGUE-DAWLEY/FEMALE, Route: INHALATION, Dose: 0, 50, 250, 500, 2500, 6000, 10000 PPM IN AIR 4 HR/D 5 D/WK FOR 17 WK (STUDY DURATION: LIFETIME), Dose: 0, 50, 250, 500, 2500, 6000, 10000 PPM IN AIR 4 HR/D 5 D/WK FOR 17 WK (STUDY DURATION: LIFETIME), Tumor Site: Type of Lesion: BRAIN: NEUROBLASTOMA [ONLY SITE EVALUATED]): active; positive
- carcinogen call (Species: RAT, Strain/Sex: SPRAGUE-DAWLEY/FEMALE, Route: INHALATION, Dose: 0, 2500 PPM 4 HR/D 5 D/WK FOR 7 WK THEN 7 HR/D 5 D/WK FOR 8 WK ADMINISTERED TO RAT EMBRYOS BEGINNING ON 12TH DAY OF GEST, Tumor Site: Type of Lesion: LIVER: HEPATOMA, ANGIOSARCOMA, BRAIN: NEUROBLASTOMA): active; positive
- carcinogen call (Species: RAT, Strain/Sex: SPRAGUE-DAWLEY/FEMALE, Route: INHALATION, Dose: 0, 2500 PPM 4 HR/D 5 D/WK FOR 7 WK THEN 7 HR/D 5 D/WK FOR 69 WK ADMINISTERED TO BREEDER RATS (STUDY DURATION: 76 WK), Tumor Site: Type of Lesion: BRAIN: NEUROBLASTOMA, LIVER, HEPATOCARCINOMA, ANGIOSARCOMA, Tumor Site: Type of Lesion: BRAIN: NEUROBLASTOMA, LIVER, HEPATOCARCINOMA, ANGIOSARCOMA): active; positive
- carcinogen call (Species: RAT, Strain/Sex: SPRAGUE-DAWLEY/FEMALE, Route: INHALATION, Dose: 0, 2500 PPM 4 HR/D 5 D/WK FOR 7 WK THEN 7 HR/D 5 D/WK FOR 69 WK ADMINISTERED TO RAT EMBRYOS BEGINNING ON 12TH DAY OF GES, Tumor Site: Type of Lesion: BRAIN: NEUROBLASTOMA, LIVER, HEPATOCARCINOMA, ANGIOSARCOMA, Tumor Site: Type of Lesion: BRAIN: NEUROBLASTOMA, LIVER, HEPATOCARCINOMA, ANGIOSARCOMA): active; positive
- carcinogen call (Species: RAT, Strain/Sex: SPRAGUE-DAWLEY/FEMALE, Route: INHALATION, Dose: 0, 6000, 10000 PPM IN AIR 1 HR/D 4 D/WK FOR 25 WK (STUDY DURATION: LIFETIME), Dose: 0, 6000, 10000 PPM IN AIR 1 HR/D 4 D/WK FOR 25 WK (STUDY DURATION: LIFETIME), Tumor Site: Type of Lesion: [BRAIN WAS ONLY SITE EVALUATED]): inactive; negative
